Test results reported in patent publication US11957687B2 (REGENERON PHARMACEUTICALS, INC., priority 2019, dated 2024).

Experiments:
[1] = target: HSD17B13 (Homo sapiens (Human), UniProt Q7Z5P4); experiment: HSD17B13 enzymatic inhibition assay (150 nM or 50 nM HSD17B13); assay type: biochemical; settings: 50 nM HSD17B13; read-out: Inhibition of 50 nM of HSD17B13 IC50
[2] = Microsome stability assay, human liver microsomes; assay type: in vitro ADME; settings: 1 μM compound, 0.5 mg/mL microsomal protein; for microsomal CLint at 1 h, 1 µM / half-life at 1 h, 1 µM: human, human liver microsomes, pooled, NADPH, 37° C.; for microsomal CLint at 1 h, 1 µM: read-out: Microsome Stability Human liver microsomes Cl; for half-life at 1 h, 1 µM: read-out: Microsome Stability Human liver microsomes T½
Outline: (§1)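 Compound at 1 μM incubated at 37° C with pooled human or mouse liver microsomes (0.5 mg/mL protein) plus NADPH regenerating system, sampled at 0–60 min; a 60-min no-NADPH incubation also included. Single replicate; LC/MS/MS disappearance from analyte/internal standard peak area ratios, without standard curve.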

[3] = Microsome stability assay, mouse liver microsomes; assay type: in vitro ADME; settings: 1 μM compound, 0.5 mg/mL microsomal protein; for microsomal CLint at 1 h, 1 µM / half-life at 1 h, 1 µM / microsomal CLint at 1 μM / half-life at 1 μM: mouse, mouse liver microsomes, pooled, NADPH, 37° C.; for microsomal CLint at 1 h, 1 µM / microsomal CLint at 1 μM: read-out: Microsome Stability Mouse liver microsomes Cl; for half-life at 1 h, 1 µM / half-life at 1 μM: read-out: Microsome Stability Mouse liver microsomes T½
Outline: as §1

[4] = target: HSD17B1 (Homo sapiens (Human), UniProt P14061); experiment: HSD17B1 enzymatic blocking assay; assay type: biochemical; settings: 25 μM Estradiol, 500 μM NAD; read-out: Inhibition of HSD17B1 IC50
Sequence of HSD17B1 (P14061 other isoform, or with tags, fused parts or gaps): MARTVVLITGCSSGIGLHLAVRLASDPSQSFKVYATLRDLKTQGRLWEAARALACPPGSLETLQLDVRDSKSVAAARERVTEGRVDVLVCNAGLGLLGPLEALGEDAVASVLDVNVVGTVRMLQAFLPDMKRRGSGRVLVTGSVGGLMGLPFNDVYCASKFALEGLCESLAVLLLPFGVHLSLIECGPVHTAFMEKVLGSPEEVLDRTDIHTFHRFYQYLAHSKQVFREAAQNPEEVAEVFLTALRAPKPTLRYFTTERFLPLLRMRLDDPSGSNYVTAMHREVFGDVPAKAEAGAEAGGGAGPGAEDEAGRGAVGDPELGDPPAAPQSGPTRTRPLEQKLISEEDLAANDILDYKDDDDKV
Outline: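 Activity followed as NADH formed on estradiol oxidation, read by NADH-Glo luminescence after 1 h detection in the dark at room temperature. Compounds preincubated with enzyme 30 min at room temperature; 0.5% DMSO and no-substrate controls. IC50 fitted from luminescence.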

[5] = target: HSD17B2 (Homo sapiens (Human), UniProt P37059); experiment: HSD17B2 enzymatic blocking assay; assay type: biochemical; settings: 1.8 μM Estradiol, 650 μM NAD; read-out: Inhibition of HSD17B2 IC50
Sequence of HSD17B2 (P37059 other isoform, or with tags, fused parts or gaps): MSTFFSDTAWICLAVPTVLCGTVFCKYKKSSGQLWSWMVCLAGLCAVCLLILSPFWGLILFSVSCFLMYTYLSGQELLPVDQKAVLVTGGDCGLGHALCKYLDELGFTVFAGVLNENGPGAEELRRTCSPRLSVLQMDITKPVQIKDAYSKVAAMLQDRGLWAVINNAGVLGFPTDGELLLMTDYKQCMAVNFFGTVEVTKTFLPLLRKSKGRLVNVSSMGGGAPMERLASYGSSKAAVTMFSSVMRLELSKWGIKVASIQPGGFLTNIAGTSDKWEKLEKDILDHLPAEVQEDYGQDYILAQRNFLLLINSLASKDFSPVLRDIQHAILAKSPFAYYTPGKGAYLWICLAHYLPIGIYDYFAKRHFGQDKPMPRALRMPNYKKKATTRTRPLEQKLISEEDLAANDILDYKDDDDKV
Outline: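 Mammalian-expressed enzyme at 2 ng/μL in 50 mM Tris-HCl pH 7.5 with detergents/BSA, preincubated 15 min at 20° C. with compound (10-point titration). Reaction with 1.8 μM estradiol and 650 μM NAD ran 45 min at 20° C.; NADH measured by NADH-Glo luminescence and IC50 derived.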

Sequence of HSD17B13 (Q7Z5P4 other isoform, or with tags, fused parts or gaps): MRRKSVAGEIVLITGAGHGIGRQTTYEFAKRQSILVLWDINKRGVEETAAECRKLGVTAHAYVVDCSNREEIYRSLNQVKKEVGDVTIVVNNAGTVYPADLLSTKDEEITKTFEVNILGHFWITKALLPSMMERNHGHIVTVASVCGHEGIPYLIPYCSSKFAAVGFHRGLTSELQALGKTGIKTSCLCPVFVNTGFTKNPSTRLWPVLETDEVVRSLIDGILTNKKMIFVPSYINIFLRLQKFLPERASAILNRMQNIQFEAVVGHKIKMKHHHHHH

Compound | IC50 [1] | Microsome Stability Human liver microsomes % Remaining @60 min [2] | microsomal CLint at 1 h, 1 µM [2] | half-life at 1 h, 1 µM [2] | Microsome Stability Mouse liver microsomes % Remaining @60 min [3] | microsomal CLint at 1 h, 1 µM [3] | half-life at 1 h, 1 µM [3] | IC50 [4] | IC50 [5] | microsomal CLint at 1 μM [3] | half-life at 1 μM [3]
CCC1CCc2cc(OC)ccc2C1NC(=O)c1ccc(C(F)(F)F)[nH]c1=O (stereo not drawn) [Compound 299, N-(2-ethyl-6-methoxy-1,2,3,4-tetrahydronaphthalen-1-yl)-2-oxo-6-(trifluoromethyl)-1,2-dihydropyridine-3-carboxamide] | 0.1 µM | 11% | 66.8 µL/min/mg | 20.8 min | 43.50% | 27.4 µL/min/mg | 50.6 min | > 30 µM | 22.6 µM |  | 
Cc1ccc2c(c1)Sc1cc(C)ccc1C2NC(=O)c1cc(-c2ccccc2)c(C(F)(F)F)[nH]c1=O [Compound 306, N-(3,6-dimethyl-9H-thioxanthen-9-yl)-2-oxo-5-phenyl-6-(trifluoromethyl)-1,2-dihydropyridine-3-carboxamide] | 0.03 µM | 12.80% | 72.9 µL/min/mg | 19 min | 70.90% | 9.6 µL/min/mg | 144 min | 7.47 µM | 17.3 µM |  | 
Cc1ccc2c(c1)[C@H](O)CC[C@H]2NC(=O)c1ccc(C(F)(F)F)[nH]c1=O [Compound 311, N-((1R,4R)-4-hydroxy-6-methyl-1,2,3,4-tetrahydronaphthalen-1-yl)-2-oxo-6-(trifluoromethyl)-1,2-dihydropyridine-3-carboxamide] | 0.19 µM | 67.80% | 10.5 µL/min/mg | 132 min | 105% |  |  | > 30 µM | > 100 µM | < 9.6 µL/min/mg | > 145 min
COc1ccc2c(c1)Oc1cnccc1C2NC(=O)c1ccc(C(F)(F)F)[nH]c1=O (stereo not drawn) [Compound 327, N-(8-methoxy-5H-chromeno[2,3-c]pyridin-5-yl)-2-oxo-6-(trifluoromethyl)-1,2-dihydropyridine-3-carboxamide] | 0.38 µM | 62% | 15.8 µL/min/mg | 87.7 min | 46% | 24.6 µL/min/mg | 56.3 min | 21.4 µM | > 100 µM |  | 

Further molecules by falling IC50 [1], results first:

IC50 [1] | Microsome Stability Human liver microsomes % Remaining @60 min [2] | microsomal CLint at 1 h, 1 µM [2] | half-life at 1 h, 1 µM [2] | Microsome Stability Mouse liver microsomes % Remaining @60 min [3] | microsomal CLint at 1 h, 1 µM [3] | half-life at 1 h, 1 µM [3] | IC50 [4] | IC50 [5] | microsomal CLint at 1 μM [3] | half-life at 1 μM [3] | Compound
0.08 µM | 14.90% | 59.9 µL/min/mg | 23.1 min | 22.70% | 47 µL/min/mg | 29.5 min | > 30 µM | 29.4 µM |  |  | CCCC1CCc2cc(OC)ccc2C1NC(=O)c1ccc(C(F)(F)F)[nH]c1=O (stereo not drawn) [Compound 289, N-(6-methoxy-2-propyl-1,2,3,4-tetrahydronaphthalen-1-yl)-2-oxo-6-(trifluoromethyl)-1,2-dihydropyridine-3-carboxamide]
0.06 µM | 1% | 450 µL/min/mg | 3.08 min | 26.50% | 45.1 µL/min/mg | 30.7 min | > 30 µM | 30.9 µM |  |  | CCC1Cc2cc(C)ccc2C1NC(=O)c1ccc(C(F)(F)F)[nH]c1=O (stereo not drawn) [Compound 298, N-(2-ethyl-5-methyl-2,3-dihydro-1H-inden-1-yl)-2-oxo-6-(trifluoromethyl)-1,2-dihydropyridine-3-carboxamide]
0.01 µM | 0.85% | 154 µL/min/mg | 9 min | 96.20% |  |  | 2.73 µM | 8.98 µM | < 9.6 µL/min/mg | > 145 min | Cc1ccc2c(c1)Sc1cc(C)ccc1C2NC(=O)c1cc(-c2ccccn2)c(C(F)(F)F)[nH]c1=O [Compound 307, N-(3,6-dimethyl-9H-thioxanthen-9-yl)-6′-oxo-2′-(trifluoromethyl)-1′,6′ dihydro-[2,3′-bipyridine]-5′-carboxamide]
